pIC50: −log10 of the molar value.
Legend:
[1] = biological target: T1, human-derived recombinant BTK protein (Homo sapiens, UniProt Q06187); experiment: BTK activity inhibition assay (HTRF in vitro kinase assay); type: biochemical; settings: 40 μM ATP, 0.2 ng/μL BTK
T1 construct: purchased Carna Biosciences 08-180
Description: In vitro kinase assay was used to evaluate the effects of compounds of the present invention on BTK activity (Table 1).
(§1) By using the homogeneous time-resolved fluorescence (HTRF) kinase detection kit (Cisbio, catalog number 62TK0PEC), the enzymatic activity of BTK is determined by detecting the phosphorylation level of the substrate in the kinase reaction. The reaction buffer contains the enzyme reaction buffer (1×) from the kit, 5 mM MgCl2, 1 mM DTT, 10 nM SEB and 0.01% Tween-20; the kinase reaction solution contains human-derived recombinant BTK protein (Carna Biosciences, Catalog No. 08-180) diluted to 0.2 ng/μL with the reaction buffer; the substrate reaction solution contains biotin-labeled tyrosine kinase substrate diluted to 0.5 μM with the reaction buffer and 40 μM ATP; the detection buffer contains Eu^3+-labeled cage antibody diluted to 0.05 ng/μL and streptavidin-labeled XL665 antibody diluted to 31.25 nM with the reaction buffer; the test compound is dissolved and diluted to 100 μM with DMSO, followed by a 4-fold serial dilution with DMSO to the lowest concentration of 6.1 nM and finally 40-time dilution with the reaction buffer for each concentration point. If the IC50 value of the compound is very low, the initial concentration of the compound is reduced.
(§2) Add 4 μL test compound solution and 2 μL kinase reaction solution to a 384-well detection plate (Corning, catalog number 3674), mix well and incubate at room temperature for 15 minutes; add 4 μL substrate reaction solution and incubate for 50 minutes; add 10 μL detection buffer, mix well and stand for 60 minutes; detect signal at 620 nm and 665 nm using an Envision plate reader (Perkin Elmer). The signal value (absorbance at 665 nm/absorbance at 620 nm) is positively correlated with the degree of phosphorylation of the substrate, thereby detecting the kinase activity of BTK. In this experiment, the group without BTK is the negative control (100% inhibition) and the group with BTK but no compound is the positive control (0% inhibition). The inhibition curve is plotted and the corresponding IC50 value of the test compound is calculated using XLfit software (ID Business Solutions Ltd., UK).

[2] = biological target: T2, human recombinant BTK C481S protein (Homo sapiens, UniProt Q06187, C481S); experiment: BTK C481S activity inhibition assay (HTRF in vitro kinase assay); type: biochemical; settings: 35 μM ATP, 1.5 ng/μL BTK C481S
T2 construct: made in house
Description: In vitro kinase assay was used to evaluate the effects of compounds of the present invention on BTK C481S activity (Table 1).
as §1, with “BTK C481S” for “BTK”, “nM SEB,” for “nM SEB”, “contains human” for “contains human-derived”, “protein (purified in-house)” for “protein (Carna Biosciences, Catalog No. 08-180)”, “to 1.5” for “to 0.2”, “and 35” for “and 40”
as §2, with “activity of BTK C481S. In this” for “activity of BTK. In this”, “with BTK C481 S but no” for “with BTK but no”, “XLfit software (TD Business Solutions” for “XLfit software (ID Business Solutions”

T1 sequence (Q06187 whole entry): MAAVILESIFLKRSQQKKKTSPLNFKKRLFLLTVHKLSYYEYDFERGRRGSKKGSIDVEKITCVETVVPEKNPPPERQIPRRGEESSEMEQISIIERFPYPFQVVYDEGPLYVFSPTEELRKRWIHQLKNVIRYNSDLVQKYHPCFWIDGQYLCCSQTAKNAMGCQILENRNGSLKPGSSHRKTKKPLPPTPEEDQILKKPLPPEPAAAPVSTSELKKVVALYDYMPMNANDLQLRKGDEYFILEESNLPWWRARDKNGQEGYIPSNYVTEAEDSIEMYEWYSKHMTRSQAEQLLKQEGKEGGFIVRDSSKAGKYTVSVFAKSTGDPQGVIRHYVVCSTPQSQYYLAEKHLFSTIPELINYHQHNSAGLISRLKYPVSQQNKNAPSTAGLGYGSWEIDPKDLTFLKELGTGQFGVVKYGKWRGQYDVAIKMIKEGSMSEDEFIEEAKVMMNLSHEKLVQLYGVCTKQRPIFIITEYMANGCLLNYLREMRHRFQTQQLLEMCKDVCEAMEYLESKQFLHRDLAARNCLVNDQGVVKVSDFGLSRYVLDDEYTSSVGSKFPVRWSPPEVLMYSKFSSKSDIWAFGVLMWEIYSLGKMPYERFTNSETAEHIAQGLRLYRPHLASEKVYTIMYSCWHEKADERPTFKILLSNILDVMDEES
T2 sequence (Q06187 whole entry C481S): as the sequence (Q06187 whole entry) above, with C481S counted along it

Row | Compound | pIC50 [1] | pIC50 [2]
1 | CNC(=O)[C@H]1CC[C@H](c2nc(-c3ccc(CNC(=O)c4cc(F)ccc4OC)cc3)c3c(N)nccn32)CC1 [Compound 23, N-(4-(8-amino-3-((1r,4r)-4-(methylcarbamoyl)cyclohexyl)imidazo[1,5-a]pyrazin-1-yl)benzyl)-5-fluoro-2-methoxybenzamide] | 9.00 | 8.52
2 | COc1ccc(F)cc1C(=O)NCc1ccc(-c2nc([C@@H]3CCN(C(=O)C4CC4)C3)n3ncnc(N)c23)cc1 [Compound 24, (R)-N-(4-(4-amino-7-(1-(cyclopropanecarbonyl)pyrrolidin-3-yl)imidazo[5,1-f][1,2,4]triazin-5-yl)benzyl)-5-fluoro-2-methoxybenzamide] | 8.41 | 8.60
3 | COc1ccc(F)cc1C(=O)NCc1ccc(-c2nc(C(C)C(F)(F)F)n3ncnc(N)c23)cc1 (centres unmarked) [Compound 26, N-(4-(4-amino-7-(1,1,1-trifluoropropan-2-yl)imidazo[5,1-f][1,2,4]triazin-5-yl)benzyl)-5-fluoro-2-methoxybenzamide] | 8.42 | 7.96
4 | COc1ccc(F)cc1C(=O)NCc1ccc(-c2nc(N3CCC(C)(C(=O)O)CC3)n3ccnc(N)c23)cc1 [Compound 27, 1-(8-amino-1-(4-((5-fluoro-2-methoxybenzamido)methyl)phenyl)imidazo[1,5-a]pyrazin-3-yl)-4-methylpiperidine-4-carboxylic acid] | 8.57 | 8.89
5 | COC(=O)C12CC(c3nc(-c4ccc(CNC(=O)c5cc(F)ccc5OC)cc4)c4c(N)ncnn34)(C1)C2 [Compound 29, methyl 3-(4-amino-5-(4-((5-fluoro-2-methoxybenzamido)methyl)phenyl)imidazo[5,1-f][1,2,4]triazin-7-yl)bicyclo[1.1.1]pentane-1-carboxylate] | 8.92 | 8.68
6 | COc1ccc(F)cc1C(=O)NCc1ccc(-c2nc(C34CC(C(=O)O)(C3)C4)n3ncnc(N)c23)cc1 [Compound 31, 3-(4-amino-5-(4-((5-fluoro-2-methoxybenzamido)methyl)phenyl)imidazo[5,1-f][1,2,4]triazin-7-yl)bicyclo[1.1.1]pentane-1-carboxylic acid] | 9.22 | 8.52
7 | COc1ccc(F)cc1C(=O)NCc1ccc(-c2nc([C@]3(C)CC[C@@](C)(C(=O)O)CC3)n3ccnc(N)c23)cc1 [Compound 32, (1r,4r)-4-(8-amino-1-(4-((5-fluoro-2-methoxybenzamido)methyl)phenyl)imidazo[1,5-a]pyrazin-3-yl)-1,4-dimethylcyclohexane-1-carboxylic acid] | 8.62 | 8.20
8 | COc1ccc(F)cc1C(=O)NCc1ccc(-c2nc(C34CCC(C(=O)O)(CC3)CC4)n3ccnc(N)c23)cc1 [Compound 34, 4-(8-amino-1-(4-((5-fluoro-2-methoxybenzamido)methyl)phenyl)imidazo[1,5-a]pyrazin-3-yl)bicyclo[2.2.2]octane-1-carboxylic acid] | 9.05 | 8.82
9 | COc1ccc(F)cc1C(=O)NCc1ccc(-c2nc(C34CCC(CO)(CC3)CC4)n3ccnc(N)c23)cc1 [Compound 35, N-(4-(8-amino-3-(4-(hydroxymethyl)bicyclo[2.2.2]octan-1-yl)imidazo[1,5-a]pyrazin-1-yl)benzyl)-5-fluoro-2-methoxybenzamide] | 9.22 | 8.82
10 | COC(=O)C12CCC(c3nc(-c4ccc(CNC(=O)c5cc(F)ccc5OC)cc4)c4c(N)nccn34)(CC1)C2 [Compound 38, methyl 4-(8-amino-1-(4-((5-fluoro-2-methoxybenzamido)methyl)phenyl)imidazo[1,5-a]pyrazin-3-yl)bicyclo[2.2.1]heptane-1-carboxylate] | 8.54 | 8.68
11 | COc1ccc(F)cc1C(=O)NCc1ccc(-c2nc([C@]3(C)CC[C@](C)(C(=O)O)CC3)n3ccnc(N)c23)cc1 [Compound 41, (1s,4s)-4-(8-amino-1-(4-((5-fluoro-2-methoxybenzamido)methyl)phenyl)imidazo[1,5-a]pyrazin-3-yl)-1,4-dimethylcyclohexane-1-carboxylic acid] | 8.59 | 8.28
12 | COc1ccc(F)cc1C(=O)NCc1ccc(-c2nc(C3(C(F)(F)F)CC3)n3ccnc(N)c23)cc1 [Compound 42, N-(4-(8-amino-3-(1-(trifluoromethyl)cyclopropyl)imidazo[1,5-a]pyrazin-1-yl)benzyl)-5-fluoro-2-methoxybenzamide] | 8.77 | 8.37

Further lines, results first:

Row | pIC50 [1] | pIC50 [2] | Compound
13 | 8.96 | 8.82 | [2H]C([2H])([2H])Oc1ccc(F)cc1C(=O)NCc1ccc(-c2nc(C3CCCOC3)n3ccnc(N)c23)cc1 (centres unmarked) [Compound 25, N-(4-(8-amino-3-(tetrahydro-2H-pyran-3-yl)imidazo[1,5-a]pyrazin-1-yl)benzyl)-5-fluoro-2-(methoxy-dz)benzamide]
14 | 9.00 | 8.66 | COC(=O)C12CCC(c3nc(-c4ccc(CNC(=O)c5cc(F)ccc5OC)cc4)c4c(N)ncnn34)(CC1)CC2 [Compound 28, methyl 4-(4-amino-5-(4-((5-fluoro-2-methoxybenzamido)methyl)phenyl)imidazo[5,1-f][1,2,4]triazin-7-yl)bicyclo[2.2.2]octane-1-carboxylate]
15 | 9.10 | 8.74 | COC(=O)C12CCC(c3nc(-c4ccc(CNC(=O)c5cc(F)ccc5OC)cc4)c4c(N)nccn34)(CC1)CC2 [Compound 33, methyl 4-(8-amino-1-(4-((5-fluoro-2-methoxybenzamido)methyl)phenyl)imidazo[1,5-a]pyrazin-3-yl)bicyclo[2.2.2]octane-1-carboxylate]
16 | 9.05 | 8.47 | CNC(=O)C12CCC(c3nc(-c4ccc(CNC(=O)c5cc(F)ccc5OC)cc4)c4c(N)nccn34)(CC1)CC2 [Compound 36, 4-(8-amino-1-(4-((5-fluoro-2-methoxybenzamido)methyl)phenyl)imidazo[1,5-a]pyrazin-3-yl)-N-methylbicyclo[2.2.2]octane-1-carboxamide]
17 | 8.89 | 8.72 | COc1ccc(F)cc1C(=O)NCc1ccc(-c2nc(C34CCC(C(=O)N5CCOCC5)(CC3)CC4)n3ccnc(N)c23)cc1 [Compound 37, N-(4-(8-amino-3-(4-(morpholine-4-carbonyl)bicyclo[2.2.2]octan-1-yl)imidazo[1,5-a]pyrazin-1-yl)benzyl)-5-fluoro-2-methoxybenzamide]
18 | 8.48 | 9.22 | COc1ccc(F)cc1C(=O)NCc1ccc(-c2nc([C@]3(C)CC[C@](C)(C(=O)OC)CC3)n3ccnc(N)c23)cc1 [Compound 39, methyl (1s,4s)-4-(8-amino-1-(4-((5-fluoro-2-methoxybenzamido)methyl)phenyl)imidazo[1,5-a]pyrazin-3-yl)-1,4-dimethylcyclohexane-1-carboxylate]
19 | 9.40 | 8.96 | COc1ccc(F)cc1C(=O)NCc1ccc(-c2nc(C34CCC(C(=O)O)(CC3)C4)n3ccnc(N)c23)cc1 [Compound 40, 4-(8-amino-1-(4-((5-fluoro-2-methoxybenzamido)methyl)phenyl)imidazo[1,5-a]pyrazin-3-yl)bicyclo[2.2.1]heptane-1-carboxylic acid]

From US20230192691A1, “HETEROCYCLIC COMPOUNDS AS BTK INHIBITORS” (Beijing InnoCare Pharma Tech Co., Ltd., priority 2020, published 2023)
